Laboratory results from patent US9765085B2, “SHIP1 modulators and methods related thereto” (Aquinox Pharmaceuticals (Canada) Inc., priority 2013, dated 2017).

target: T1, His-hSHIP1 enzyme (Homo sapiens, UniProt Q92835); assay: His-hSHIP1 activity (phosphatase assay, IP4 substrate, Biomol Green); type: biochemical; design: key: +++: higher than reference or reference - 15%; ++: reference - 16% to reference - 30%; +: reference - 31% or lower; −: inhibitor; settings: ratio of initial velocities (IP4 25/IP4 250 μM final) compared with a reference SHIP1 activator; 37° C.
T1 construct: His
T1 sequence (Q92835 1-1189): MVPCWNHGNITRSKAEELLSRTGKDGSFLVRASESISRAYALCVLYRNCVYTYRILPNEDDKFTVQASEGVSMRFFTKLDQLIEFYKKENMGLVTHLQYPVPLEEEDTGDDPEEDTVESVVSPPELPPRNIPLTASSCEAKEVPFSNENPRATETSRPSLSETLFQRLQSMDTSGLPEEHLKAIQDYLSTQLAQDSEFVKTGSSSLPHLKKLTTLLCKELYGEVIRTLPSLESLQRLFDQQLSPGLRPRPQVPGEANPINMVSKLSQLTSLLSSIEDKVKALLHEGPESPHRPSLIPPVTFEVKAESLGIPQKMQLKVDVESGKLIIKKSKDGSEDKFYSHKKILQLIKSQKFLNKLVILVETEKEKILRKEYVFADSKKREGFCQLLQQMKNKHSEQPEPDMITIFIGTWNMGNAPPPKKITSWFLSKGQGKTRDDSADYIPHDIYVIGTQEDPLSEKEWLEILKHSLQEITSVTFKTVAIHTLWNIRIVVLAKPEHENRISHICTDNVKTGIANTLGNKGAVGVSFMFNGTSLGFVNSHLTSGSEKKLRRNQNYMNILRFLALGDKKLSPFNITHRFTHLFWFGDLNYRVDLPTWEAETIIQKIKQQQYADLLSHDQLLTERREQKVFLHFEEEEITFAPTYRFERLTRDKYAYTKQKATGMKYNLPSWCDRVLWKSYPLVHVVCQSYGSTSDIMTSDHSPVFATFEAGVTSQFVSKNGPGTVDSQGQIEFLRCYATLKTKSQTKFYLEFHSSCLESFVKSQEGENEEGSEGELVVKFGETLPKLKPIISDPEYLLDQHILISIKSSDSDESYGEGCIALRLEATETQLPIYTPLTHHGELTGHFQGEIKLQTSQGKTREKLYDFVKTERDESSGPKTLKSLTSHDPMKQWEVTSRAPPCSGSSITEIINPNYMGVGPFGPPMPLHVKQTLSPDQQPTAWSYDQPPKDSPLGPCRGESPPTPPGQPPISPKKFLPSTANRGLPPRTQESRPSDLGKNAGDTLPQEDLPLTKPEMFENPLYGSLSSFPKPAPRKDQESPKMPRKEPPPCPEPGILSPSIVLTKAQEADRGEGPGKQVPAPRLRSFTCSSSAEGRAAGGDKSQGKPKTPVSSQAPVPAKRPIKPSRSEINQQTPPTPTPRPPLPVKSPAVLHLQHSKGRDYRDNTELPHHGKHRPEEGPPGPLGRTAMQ
Method: Test compounds are dissolved in 95% ethanol to form stock solutions. Before screening, the stock solutions are diluted with Phosphatase Assay Buffer (20 mM Tris-HCL, 10 mM MgCl2 pH 7.5, 0.02% Tween 20) to form working assay solutions that contain 10% ethanol. The assay is carried out on 96-well microtiter plates using a modified procedure of that reported by Ong et al., Blood 110, 1942-1949, 2007 and Yang et al., Org Lett 7, 1073-1076, 2005, both of which references are incorporated herein by reference in their entirety.
A master mix is prepared that contains 50 μL of His-hSHIP1 enzyme (0.4-1.6 ng/μL final), 25 μL of the substrate, IP4 (25 or 250 μM final), and 50 μL of test compound in 3.3% ethanol ([…]). Control blanks are also prepared by replacing His-hSHIP1 enzyme, IP4, or test compounds with Phosphate Assay Buffer. […] Each reaction component is preincubated at 37° C. for 30 min before adding to a 96-well microtiter plate. The master mix is then incubated at 37° C. At time 0, 20, 25 and 30 min, 25 μL of the master mix is removed and transferred to a new 96-well microtiter plate, to which 100 μL of Biomol Green Reagent is added to stop the reaction. After incubating the mixture for 20 min at room temperature for color development, the absorbance is read with SpectraMax Plus 96-well plate reader at a wavelength of 650 nm. Phosphate released is plotted against time to calculate the initial velocities (i.e., slope of the graph) at each IP4 concentration. The initial velocities are baseline corrected and the ratio of initial velocities (IP425/IP4250) is calculated and used to rate the test compounds.
The compound numbers in Table 2 correspond to the compound numbers in Table 1 above. Scoring of the compound is expressed as follows: […]

Compound	Scoring (Initial Velocity Ratio)
C[C@]1([C@H]2CCC3=C(C[C@@H](O)[C@@]3(C)c3ccccc3)[C@@H]2CO)CC[C@H](O)C[C@@H]1CO [compound 37, (1S,2R,4R,5S)-5-((1R,2S,4S)-4-hydroxy-2-(hydroxymethyl)-1-methylcyclohexyl)-4-(hydroxymethyl)-1-methyl-1-phenyl-2,3,4,5,6,7-hexahydro-1H-inden-2-ol]	+
C[C@]1([C@H]2CCC3=C(C[C@@H](O)[C@@]3(C)c3ccccc3)[C@@H]2CN)CC[C@H](O)C[C@@H]1CO [compound 19, (1S,2R,4R,5S)-4-(aminomethyl)-5-((1R,2S,4S)-4-hydroxy-2-(hydroxymethyl)-1-methylcyclohexyl)-1-methyl-1-phenyl-2,3,4,5,6,7-hexahydro-1H-inden-2-ol]	++
CC1(C)CCC2=C1CC[C@H]([C@@]1(C)CC[C@H](O)C[C@@H]1CO)[C@H]2CNC(=O)c1cccnc1 [compound 1, N-(((4R,5S)-5-((1R,2S,4S)-4-hydroxy-2-(hydroxymethyl)-1-methylcyclohexyl)-1,1-dimethyl-2,3,4,5,6,7-hexahydro-1H-inden-4-yl)methyl)nicotinamide]	+
C[C@]1([C@H]2CC[C@@]3(C)[C@@H](CC[C@@]3(O)c3ccccn3)[C@@H]2CN)CC[C@H](O)C[C@@H]1CO [compound 17, (1S,3aS,4R,5S,7aS)-4-(aminomethyl)-5-((1R,2S,4S)-4-hydroxy-2-(hydroxymethyl)-1-methylcyclohexyl)-7a-methyl-1-(pyridin-2-yl)octahydro-1H-inden-1-ol]	−
C[C@]1([C@H]2CC[C@@]3(C)[C@@H](CC[C@@]3(O)c3ccccn3)[C@@H]2CO)CC[C@H](O)C[C@@H]1CO [compound 36, (1S,3aS,4R,5S,7aS)-5-((1R,2S,4S)-4-hydroxy-2-(hydroxymethyl)-1-methylcyclohexyl)-4-(hydroxymethyl)-7a-methyl-1-(pyridin-2-yl)octahydro-1H-inden-1-ol]	++
C[C@@H]1CC[C@@]2(OC1)O[C@H]1C[C@H]3[C@H](CO)[C@@H]([C@@]4(C)CC[C@H](O)C[C@@H]4CO)CC[C@]3(C)[C@H]1[C@@H]2C [compound 29, (1S,3S,4R)-3-(hydroxymethyl)-4-((2R,3S,3aR,3bS,5′R,6S,7R,7aS,8aS)-7-(hydroxymethyl)-3,3b,5′-trimethyltetradecahydrospiro[indeno[2,1-b]furan-2,2′-pyran]-6-yl)-4-methylcyclohexanol]	++
C=C1CC[C@H]2[C@H](CO)[C@@H]([C@@]3(C)Cc4sc(C)nc4C[C@@H]3CO)CC[C@]12C [compound 24, ((3aS,4R,5S,7aS)-5-((5S,6R)-5-(hydroxymethyl)-2,6-dimethyl-4,5,6,7-tetrahydrobenzo[d]thiazol-6-yl)-7a-methyl-1-methyleneoctahydro-1H-inden-4-yl)methanol]	++
C[C@]1([C@H]2CC[C@@]3(C)[C@@H](CC[C@@]3(O)c3ccco3)[C@@H]2CN)CC[C@H](O)C[C@@H]1CO [compound 12, (1S,3aS,4R,5S,7aS)-4-(aminomethyl)-1-(furan-2-yl)-5-((1R,2S,4S)-4-hydroxy-2-(hydroxymethyl)-1-methylcyclohexyl)-7a-methyloctahydro-1H-inden-1-ol]	+++

More lines, now with the values ahead:

Scoring (Initial Velocity Ratio)	Compound
++	C[C@]1([C@H]2CC[C@@]3(C)[C@@H](CC[C@@]3(O)c3nccs3)[C@@H]2CN)CC[C@H](O)C[C@@H]1CO [compound 20, (1S,3aS,4R,5S,7aS)-4-(aminomethyl)-5-((1R,2S,4S)-4-hydroxy-2-(hydroxymethyl)-1-methylcyclohexyl)-7a-methyl-1-(thiazol-2-yl)octahydro-1H-inden-1-ol]
+	C[C@]1([C@H]2CC[C@]3(C)C(c4ccco4)=CC[C@H]3[C@@H]2CN)CC[C@H](O)C[C@@H]1CO [compound 13, (1S,3S,4R)-4-((3aS,6S,7R,7aS)-7-(aminomethyl)-3-(furan-2-yl)-3a-methyl-3a,4,5,6,7,7a-hexahydro-1H-inden-6-yl)-3-(hydroxymethyl)-4-methylcyclohexanol]
++	CN/C(=N\C#N)NC[C@H]1C2=C(CC[C@@H]1[C@@]1(C)CC[C@H](O)C[C@@H]1CO)C(C)(C)CC2 [compound 3, (E)-2-cyano-1-(((4R,5S)-5-((1R,2S,4S)-4-hydroxy-2-(hydroxymethyl)-1-methylcyclohexyl)-1,1-dimethyl-2,3,4,5,6,7-hexahydro-1H-inden-4-yl)methyl)-3-methylguanidine]
++	C=C1CC[C@H]2[C@H](CO)[C@@H]([C@@]3(C)CC[C@H](NC(C)=O)C[C@@H]3CO)CC[C@]12C [compound 32, N-((1S,3S,4R)-3-(hydroxymethyl)-4-((3aS,4R,5S,7aS)-4-(hydroxymethyl)-7a-methyl-1-methyleneoctahydro-1H-inden-5-yl)-4-methylcyclohexyl)acetamide]
++	C[C@]1([C@H]2CC[C@]3(C)C(c4ccccc4)=CC[C@H]3[C@@H]2CN)CC[C@H](O)C[C@@H]1CO.Cl [compound 10, (1S,3S,4R)-4-((3aS,6S,7R,7aS)-7-(aminomethyl)-3a-methyl-3-phenyl-3a,4,5,6,7,7a-hexahydro-1H-inden-6-yl)-3-(hydroxymethyl)-4-methylcyclohexanol hydrochloride]
+	C[C@]1([C@H]2CC[C@]3(C)C(c4cccs4)=CC[C@H]3[C@@H]2CN)CC[C@H](O)C[C@@H]1CO [compound 16, (1S,3S,4R)-4-((3aS,6S,7R,7aS)-7-(aminomethyl)-3a-methyl-3-(thiophen-2-yl)-3a,4,5,6,7,7a-hexahydro-1H-inden-6-yl)-3-(hydroxymethyl)-4-methylcyclohexanol]
++	C=C1CC[C@H]2[C@H](CO)[C@@H]([C@@]3(C)Cc4conc4C[C@@H]3CO)CC[C@]12C [compound 22, ((3aS,4R,5S,7aS)-5-((5R,6S)-6-(hydroxymethyl)-5-methyl-4,5,6,7-tetrahydrobenzo[c]isoxazol-5-yl)-7a-methyl-1-methyleneoctahydro-1H-inden-4-yl)methanol]
+	C[C@]1([C@H]2CC[C@]3(C)c4[nH]ncc4C[C@H]3[C@@H]2CO)CC[C@H](O)C[C@@H]1CO [compound 33, (1S,3S,4R)-3-(hydroxymethyl)-4-((4aS,5R,6S,8aS)-5-(hydroxymethyl)-8a-methyl-1,4,4a,5,6,7,8,8a-octahydroindeno[1,2-c]pyrazol-6-yl)-4-methylcyclohexanol]
++	(1S,3S,4R)-4-((2R,3S,3aR,3bS,5′R,6S,7R,7aS,8aS)-7-(aminomethyl)-3,3b,5′-trimethyltetradecahydrospiro[indeno[2,1-b]furan-2,2′-pyran]-6-yl)-3-(hydroxymethyl)-4-methylcyclohexanol acetate [compound 14]
